Test results from ChEMBL document CHEMBL1131681, “Thiazolo[4,5-d]pyrimidine thiones and -ones as corticotropin-releasing hormone (CRH-R1) receptor antagonists” (Bioorg Med Chem Lett, 1999).

Target: T1, Corticotropin-releasing factor receptor 1 (Homo sapiens, UniProt P34998)
T1 sequence (P34998 whole entry): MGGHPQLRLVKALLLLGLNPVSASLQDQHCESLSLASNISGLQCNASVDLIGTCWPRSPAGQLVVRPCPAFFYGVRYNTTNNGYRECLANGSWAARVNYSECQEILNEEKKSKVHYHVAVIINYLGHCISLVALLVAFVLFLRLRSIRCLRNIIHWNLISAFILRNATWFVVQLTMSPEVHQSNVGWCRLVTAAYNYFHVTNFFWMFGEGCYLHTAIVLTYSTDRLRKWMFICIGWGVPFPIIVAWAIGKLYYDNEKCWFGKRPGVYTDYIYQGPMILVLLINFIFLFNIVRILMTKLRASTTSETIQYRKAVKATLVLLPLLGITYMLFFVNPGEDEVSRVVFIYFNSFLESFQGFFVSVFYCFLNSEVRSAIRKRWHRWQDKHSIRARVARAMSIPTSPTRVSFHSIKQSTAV
Assay: Binding affinity against human Corticotropin releasing factor receptor 1 expressed in HEK 293E cells using [125I]TYR-oCRH
Assay type: cell-based, HEK293

Compound | Ki [µM]
COCCN(CCOC)c1nc(C)nc2c1sc(=O)n2-c1c(C)cc(C)cc1C | 0.005
COCCN(CCOC)c1nc(C)nc2c1sc(=O)n2-c1ccc(C(C)C)cc1Br | 0.0145
CCCCN(CC)c1nc(C)nc2c1sc(=S)n2-c1ccc(C(C)C)cc1Br | 0.0239
CCCN(CC1CC1)c1nc(C)nc2c1sc(=O)n2-c1c(C)cc(C)cc1C | 0.0162
CCCN(CC1CC1)c1nc(C)nc2c1sc(=O)n2-c1ccc(C(C)C)cc1Br | 0.0041
Cc1nc(N2CCOCC2)c2sc(=S)n(-c3ccc(C(C)C)cc3Br)c2n1 | 0.122
CCN(CC)c1nc(C)nc2c1sc(=S)n2-c1c(C)cc(C)cc1C | 0.0092
COCCN(CCOC)c1nc(C)nc2c1sc(=S)n2-c1ccc(C(C)C)cc1Br | 0.0066

Further lines, results first:

Ki [µM] | Compound
0.0131 | CCCN(CC1CC1)c1nc(C)nc2c1sc(=S)n2-c1c(C)cc(C)cc1C
0.0145 | CCN(CC)c1nc(C)nc2c1sc(=O)n2-c1c(C)cc(C)cc1C
0.0041 | CCN(CC)c1nc(C)nc2c1sc(=S)n2-c1ccc(C(C)C)cc1Br
0.0454 | CCC(C)N(c1nc(C)nc2c1sc(=S)n2-c1ccc(C(C)C)cc1Br)C(C)CC (stereo not given)
0.0126 | CCCN(CC1CC1)c1nc(C)nc2c1sc(=S)n2-c1ccc(C(C)C)cc1Br
0.0094 | CCN(CC)c1nc(C)nc2c1sc(=O)n2-c1ccc(C(C)C)cc1Br
0.0086 | COCCN(CCOC)c1nc(C)nc2c1sc(=S)n2-c1c(C)cc(C)cc1C
